Measurements: patent US12723063B2, “GIPR-agonist compounds” (Eli Lilly and Company, priority 2019, dated 2026)
*1 amine or outer side, *2 acyl side, *3 side chain or, on linkers, in order; H or OH if unused. Where a SMILES comes first, the peptide text is derived from it. Side-chain parts run from the residue outwards. [ ]: non-standard residue; d: D form. The star is where a group is joined. C20 diacid = O=C(O)CCCCCCCCCCCCCCCCCCC(=O)*; C18 diacid = O=C(O)CCCCCCCCCCCCCCCCC(=O)*; αMePhe(2-F) = C[C@](N)(Cc1ccccc1F)C(=O)O; γGlu = O=C(O)[C@H](CCC(=O)[*:2])N[*:1]; αMeF = C[C@](N)(Cc1ccccc1)C(=O)O; 4Pal = N[C@@H](Cc1ccncc1)C(=O)O; αMeL = CC(C)C[C@](C)(N)C(=O)O; Orn = NCCC[C@H](N)C(=O)O; AEEA = NCCOCCOCC(=O)O; Aib = CC(C)(N)C(=O)O

Experiments:
Test in all cases: cAMP functional assay (HTRF) in HEK293 cells in presence of 0.1% casein
Type in all cases: cell-based
[1] = molecular target: T1, human GLP-1 receptor (GLP-1R) (Homo sapiens, UniProt P43220); conditions: HEK293 cells expressing human GLP-1R, geometric mean, read-out: hGLP1R cAMP Rel EC50 nM (SEM, n)
T1 construct: expressed in transfected cells; host or cells: HEK293

[2] = molecular target: T2, human glucagon receptor (GcgR) (Homo sapiens, UniProt P47871); conditions: HEK293 cells expressing human GcgR, geometric mean, read-out: hGcgR cAMP Rel EC50 nM (SEM, n)
T2 construct: expressed in transfected cells; host or cells: HEK293

[3] = molecular target: T3, human glucose-dependent insulinotropic peptide receptor (GIPR) (Homo sapiens, UniProt P48546); conditions: HEK293 cells expressing human GIPR, geometric mean, read-out: hGIPR cAMP Rel EC50 nM (SEM, n)
T3 construct: expressed in transfected cells; host or cells: HEK293
T3 sequence (P48546 22-466): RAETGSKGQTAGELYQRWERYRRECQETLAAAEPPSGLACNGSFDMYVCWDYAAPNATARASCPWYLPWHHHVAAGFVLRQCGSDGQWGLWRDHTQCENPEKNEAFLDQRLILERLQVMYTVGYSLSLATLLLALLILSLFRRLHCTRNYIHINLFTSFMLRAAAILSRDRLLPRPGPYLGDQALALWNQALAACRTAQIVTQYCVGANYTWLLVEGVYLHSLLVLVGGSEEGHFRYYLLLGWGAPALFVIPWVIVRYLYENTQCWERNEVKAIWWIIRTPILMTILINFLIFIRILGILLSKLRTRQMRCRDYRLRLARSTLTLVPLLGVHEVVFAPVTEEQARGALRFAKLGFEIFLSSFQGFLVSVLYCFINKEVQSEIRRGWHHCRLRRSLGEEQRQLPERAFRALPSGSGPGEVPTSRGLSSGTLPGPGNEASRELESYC

T2 sequence (P47871 26-477): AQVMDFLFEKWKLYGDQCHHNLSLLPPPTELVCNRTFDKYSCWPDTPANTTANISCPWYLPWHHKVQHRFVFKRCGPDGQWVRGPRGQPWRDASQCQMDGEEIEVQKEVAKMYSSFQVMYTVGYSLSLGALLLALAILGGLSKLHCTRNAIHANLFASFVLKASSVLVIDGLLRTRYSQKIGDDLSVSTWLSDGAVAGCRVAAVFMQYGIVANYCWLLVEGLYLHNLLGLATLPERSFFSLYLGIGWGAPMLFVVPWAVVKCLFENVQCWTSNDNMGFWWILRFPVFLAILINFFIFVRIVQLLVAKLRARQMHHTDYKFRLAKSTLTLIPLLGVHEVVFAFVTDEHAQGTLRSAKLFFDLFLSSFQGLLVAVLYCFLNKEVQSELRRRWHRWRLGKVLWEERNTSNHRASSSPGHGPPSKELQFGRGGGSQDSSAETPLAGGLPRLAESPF
T1 sequence (P43220 24-463): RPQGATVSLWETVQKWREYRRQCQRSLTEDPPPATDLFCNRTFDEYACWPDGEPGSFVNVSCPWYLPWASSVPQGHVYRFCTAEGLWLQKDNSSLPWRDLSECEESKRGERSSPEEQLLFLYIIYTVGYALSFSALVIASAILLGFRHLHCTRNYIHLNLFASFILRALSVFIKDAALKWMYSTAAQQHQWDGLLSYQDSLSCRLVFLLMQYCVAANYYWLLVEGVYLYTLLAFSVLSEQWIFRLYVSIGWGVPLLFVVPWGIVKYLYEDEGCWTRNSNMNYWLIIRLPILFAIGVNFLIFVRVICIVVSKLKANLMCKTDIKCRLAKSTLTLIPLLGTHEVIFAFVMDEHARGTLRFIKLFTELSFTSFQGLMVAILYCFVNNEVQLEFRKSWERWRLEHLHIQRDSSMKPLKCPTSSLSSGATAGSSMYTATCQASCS

SMILES	EC50 [1] [nM]	EC50 [2] [nM]	EC50 [3] [nM]
CC[C@H](C)[C@H](NC(=O)[C@H](CO)NC(=O)[C@H](Cc1ccc(O)cc1)NC(=O)[C@H](CC(=O)O)NC(=O)[C@H](CO)NC(=O)[C@@H](NC(=O)[C@](C)(Cc1ccccc1F)NC(=O)[C@@H](NC(=O)CNC(=O)[C@H](CCC(=O)O)NC(=O)C(C)(C)NC(=O)[C@@H](N)Cc1ccc(O)cc1)[C@@H](C)O)[C@@H](C)CC)C(=O)N[C@@H](C)C(=O)N[C@@H](CC(C)C)C(=O)N[C@@H](CC(=O)O)C(=O)N[C@@H](CCCCN)C(=O)N[C@@H](CCCCNC(=O)COCCOCCNC(=O)COCCOCCNC(=O)CC[C@H](NC(=O)CCCCCCCCCCCCCCCCCCC(=O)O)C(=O)O)C(=O)N[C@@H](Cc1c[nH]cn1)C(=O)N[C@@H](CCC(N)=O)C(=O)NC(C)(C)C(=O)N[C@@H](CCC(=O)O)C(=O)N[C@@H](Cc1ccccc1)C(=O)N[C@H](C(=O)N[C@@H](CC(N)=O)C(=O)N[C@@H](Cc1c[nH]c2ccccc12)C(=O)N[C@@H](CC(C)C)C(=O)N[C@@H](CC(C)C)C(=O)N[C@@H](C)C(=O)NCC(=O)NCC(=O)N1CCC[C@H]1C(=O)N[C@@H](CO)C(=O)N[C@@H](CO)C(=O)NCC(=O)N[C@@H](C)C(=O)N1CCC[C@H]1C(=O)N1CCC[C@H]1C(=O)N1CCC[C@H]1C(=O)N[C@@H](CO)C(N)=O)C(C)C [Example 26] (H-Y[Aib]EGT[αMePhe(2-F)]ISDYSIALDKK([AEEA-AEEA-γGlu-C20 diacid])HQ[Aib]EFVNWLLAGGPSSGAPPPS-NH2)	5.69	> 5000	0.00991
CC[C@H](C)[C@H](NC(=O)[C@H](CO)NC(=O)[C@H](Cc1ccc(O)cc1)NC(=O)[C@H](CC(=O)O)NC(=O)[C@H](CO)NC(=O)[C@@H](NC(=O)[C@H](Cc1ccccc1)NC(=O)[C@@H](NC(=O)CNC(=O)[C@H](CCC(=O)O)NC(=O)C(C)(C)NC(=O)[C@@H](N)Cc1ccc(O)cc1)[C@@H](C)O)[C@@H](C)CC)C(=O)N[C@@H](C)C(=O)N[C@@H](CC(C)C)C(=O)N[C@@H](CC(=O)O)C(=O)N[C@@H](CCCCN)C(=O)N[C@@H](CCCCNC(=O)COCCOCCNC(=O)COCCOCCNC(=O)CC[C@H](NC(=O)CCCCCCCCCCCCCCCCC(=O)O)C(=O)O)C(=O)N[C@@H](Cc1c[nH]cn1)C(=O)N[C@@H](CCC(N)=O)C(=O)NC(C)(C)C(=O)N[C@@H](CC(=O)O)C(=O)N[C@@H](Cc1ccccc1)C(=O)N[C@H](C(=O)N[C@@H](CCC(=O)O)C(=O)N[C@@H](Cc1ccncc1)C(=O)N[C@@H](CC(C)C)C(=O)N[C@@H](CC(C)C)C(=O)N[C@@H](C)C(=O)NCC(=O)NCC(=O)N1CCC[C@H]1C(=O)N[C@@H](CO)C(=O)N[C@@H](CO)C(=O)NCC(=O)N[C@@H](C)C(=O)N1CCC[C@H]1C(=O)N1CCC[C@H]1C(=O)N1CCC[C@H]1C(=O)N[C@@H](CO)C(N)=O)C(C)C [Example 21] (H-Y[Aib]EGTFISDYSIALDKK([AEEA-AEEA-γGlu-C18 diacid])HQ[Aib]DFVE[4Pal]LLAGGPSSGAPPPS-NH2)	> 5000	> 5000	0.291
CC[C@H](C)[C@H](NC(=O)[C@H](CCCCN)NC(=O)[C@H](CC(=O)O)NC(=O)[C@H](CC(C)C)NC(=O)[C@](C)(CC(C)C)NC(=O)[C@@H](NC(=O)[C@H](CO)NC(=O)[C@H](Cc1ccc(O)cc1)NC(=O)[C@H](CC(=O)O)NC(=O)[C@H](CO)NC(=O)[C@@H](NC(=O)[C@H](Cc1ccccc1)NC(=O)[C@@H](NC(=O)CNC(=O)[C@H](CCC(=O)O)NC(=O)C(C)(C)NC(=O)[C@@H](N)Cc1ccc(O)cc1)[C@@H](C)O)[C@@H](C)CC)[C@@H](C)CC)C(=O)N[C@@H](Cc1c[nH]cn1)C(=O)N[C@@H](CCC(N)=O)C(=O)NC(C)(C)C(=O)N[C@@H](CCC(=O)O)C(=O)N[C@@H](Cc1ccccc1)C(=O)N[C@H](C(=O)N[C@@H](CCC(=O)O)C(=O)N[C@@H](Cc1ccncc1)C(=O)N[C@@H](CCCCNC(=O)COCCOCCNC(=O)COCCOCCNC(=O)CC[C@H](NC(=O)CCCCCCCCCCCCCCCCCCC(=O)O)C(=O)O)C(=O)N[C@@H](CC(C)C)C(=O)N[C@@H](CCC(=O)O)C(=O)NCC(=O)NCC(=O)N1CCC[C@H]1C(=O)N[C@@H](CO)C(=O)N[C@@H](CO)C(=O)NCC(=O)N[C@@H](C)C(=O)N1CCC[C@H]1C(=O)N1CCC[C@H]1C(=O)N1CCC[C@H]1C(=O)N[C@@H](CO)C(N)=O)C(C)C [Example 100] (H-Y[Aib]EGTFISDYSI[αMeL]LDKIHQ[Aib]EFVE[4Pal]K([AEEA-AEEA-γGlu-C20 diacid])LEGGPSSGAPPPS-NH2)	> 5000	> 5000	0.0224
CC[C@H](C)[C@H](NC(=O)[C@H](Cc1ccccc1)NC(=O)[C@@H](NC(=O)CNC(=O)[C@H](CCC(=O)O)NC(=O)C(C)(C)NC(=O)[C@@H](N)Cc1ccc(O)cc1)[C@@H](C)O)C(=O)N[C@@H](CO)C(=O)N[C@@H](CC(=O)O)C(=O)N[C@@H](Cc1ccc(O)cc1)C(=O)N[C@@H](CO)C(=O)N[C@H](C(=O)N[C@@](C)(CC(C)C)C(=O)N[C@@H](CC(C)C)C(=O)N[C@@H](CC(=O)O)C(=O)N[C@@H](CCC(=O)O)C(=O)N[C@@H](CCCCNC(=O)COCCOCCNC(=O)COCCOCCNC(=O)CC[C@H](NC(=O)CCCCCCCCCCCCCCCCCCC(=O)O)C(=O)O)C(=O)N[C@@H](Cc1c[nH]cn1)C(=O)N[C@@H](CCC(N)=O)C(=O)NC(C)(C)C(=O)N[C@@H](CC(=O)O)C(=O)N[C@@H](Cc1ccccc1)C(=O)N[C@H](C(=O)N[C@@H](CCC(=O)O)C(=O)N[C@@H](Cc1ccncc1)C(=O)N[C@@H](CC(C)C)C(=O)N[C@@H](CC(C)C)C(=O)N[C@@H](C)C(=O)NCC(=O)NCC(=O)N1CCC[C@H]1C(=O)N[C@@H](CO)C(=O)N[C@@H](CO)C(=O)NCC(=O)N[C@@H](C)C(=O)N1CCC[C@H]1C(=O)N1CCC[C@H]1C(=O)N1CCC[C@H]1C(=O)N[C@@H](CO)C(N)=O)C(C)C)[C@@H](C)CC [Example 86]	> 5000	> 5000	0.03
CC[C@H](C)[C@H](NC(=O)[C@H](CO)NC(=O)[C@H](Cc1ccc(O)cc1)NC(=O)[C@H](CC(=O)O)NC(=O)[C@H](CO)NC(=O)[C@@H](NC(=O)[C@](C)(Cc1ccccc1)NC(=O)[C@@H](NC(=O)CNC(=O)[C@H](CCC(=O)O)NC(=O)C(C)(C)NC(=O)[C@@H](N)Cc1ccc(O)cc1)[C@@H](C)O)[C@@H](C)CC)C(=O)N[C@@H](C)C(=O)N[C@@H](CC(C)C)C(=O)N[C@@H](CC(=O)O)C(=O)N[C@@H](CCCCN)C(=O)N[C@H](C(=O)N[C@@H](Cc1c[nH]cn1)C(=O)N[C@@H](CCC(N)=O)C(=O)NC(C)(C)C(=O)N[C@@H](CCC(=O)O)C(=O)N[C@@H](Cc1ccccc1)C(=O)N[C@H](C(=O)N[C@@H](CC(N)=O)C(=O)N[C@@H](Cc1ccc(O)cc1)C(=O)N[C@@H](CCCCNC(=O)COCCOCCNC(=O)COCCOCCNC(=O)CC[C@H](NC(=O)CCCCCCCCCCCCCCCCCCC(=O)O)C(=O)O)C(=O)N[C@@H](CC(C)C)C(=O)N[C@@H](C)C(=O)NCC(=O)NCC(=O)N1CCC[C@H]1C(=O)N[C@@H](CO)C(=O)N[C@@H](CO)C(=O)NCC(=O)N[C@@H](C)C(=O)N1CCC[C@H]1C(=O)N1CCC[C@H]1C(=O)N1CCC[C@H]1C(=O)N[C@@H](CO)C(N)=O)C(C)C)[C@@H](C)CC [Example 97] (H-Y[Aib]EGT[αMeF]ISDYSIALDKIHQ[Aib]EFVNYK([AEEA-AEEA-γGlu-C20 diacid])LAGGPSSGAPPPS-NH2)	2510	> 5000	0.009
CC[C@H](C)[C@H](NC(=O)[C@H](Cc1ccccc1)NC(=O)[C@@H](NC(=O)CNC(=O)[C@H](CCC(=O)O)NC(=O)C(C)(C)NC(=O)[C@@H](N)Cc1ccc(O)cc1)[C@@H](C)O)C(=O)N[C@@H](CO)C(=O)N[C@@H](CC(=O)O)C(=O)N[C@@H](Cc1ccc(O)cc1)C(=O)N[C@@H](CO)C(=O)N[C@H](C(=O)N[C@@](C)(CC(C)C)C(=O)N[C@@H](CC(C)C)C(=O)N[C@@H](CC(=O)O)C(=O)N[C@@H](CCCN)C(=O)N[C@@H](CCCCNC(=O)COCCOCCNC(=O)COCCOCCNC(=O)CC[C@H](NC(=O)CCCCCCCCCCCCCCCCCCC(=O)O)C(=O)O)C(=O)N[C@@H](Cc1c[nH]cn1)C(=O)N[C@@H](CCC(N)=O)C(=O)NC(C)(C)C(=O)N[C@@H](CC(=O)O)C(=O)N[C@@H](Cc1ccccc1)C(=O)N[C@H](C(=O)N[C@@H](CCC(=O)O)C(=O)N[C@@H](Cc1ccncc1)C(=O)N[C@@H](CC(C)C)C(=O)N[C@@H](CC(C)C)C(=O)N[C@@H](CCC(=O)O)C(=O)NCC(=O)NCC(=O)N1CCC[C@H]1C(=O)N[C@@H](CO)C(=O)N[C@@H](CO)C(=O)NCC(=O)N[C@@H](C)C(=O)N1CCC[C@H]1C(=O)N1CCC[C@H]1C(=O)N1CCC[C@H]1C(=O)N[C@@H](CO)C(N)=O)C(C)C)[C@@H](C)CC [Example 82] (H-Y[Aib]EGTFISDYSI[αMeL]LD[Orn]K([AEEA-AEEA-γGlu-C20 diacid])HQ[Aib]DFVE[4Pal]LLEGGPSSGAPPPS-NH2)	> 5000	3790	0.0391
